Data as given in patent publication US20090170902A1, “COMPOUNDS WHICH POTENTIATE GLUTAMATE RECEPTOR AND USES THEREOF IN MEDICINE” (priority 2006, published 2009).

target: T1, human GluR2 flip (unedited) AMPA receptor subunit (Homo sapiens, UniProt P42262); experiment: Calcium influx fluorescence assay (FLUO4, FLIPR); format: cell-based; settings: HEK293; HEK 293 cells expressing human GluR2 flip (unedited); relative to fluorescence increase induced by cyclothiazide at maximum response; read-out: activity relative to cyclothiazide (at its maximal response)
T1 construct: expressed in transfected cells
T1 sequence (P42262 25-883 isoform P42262-2 limits assumed): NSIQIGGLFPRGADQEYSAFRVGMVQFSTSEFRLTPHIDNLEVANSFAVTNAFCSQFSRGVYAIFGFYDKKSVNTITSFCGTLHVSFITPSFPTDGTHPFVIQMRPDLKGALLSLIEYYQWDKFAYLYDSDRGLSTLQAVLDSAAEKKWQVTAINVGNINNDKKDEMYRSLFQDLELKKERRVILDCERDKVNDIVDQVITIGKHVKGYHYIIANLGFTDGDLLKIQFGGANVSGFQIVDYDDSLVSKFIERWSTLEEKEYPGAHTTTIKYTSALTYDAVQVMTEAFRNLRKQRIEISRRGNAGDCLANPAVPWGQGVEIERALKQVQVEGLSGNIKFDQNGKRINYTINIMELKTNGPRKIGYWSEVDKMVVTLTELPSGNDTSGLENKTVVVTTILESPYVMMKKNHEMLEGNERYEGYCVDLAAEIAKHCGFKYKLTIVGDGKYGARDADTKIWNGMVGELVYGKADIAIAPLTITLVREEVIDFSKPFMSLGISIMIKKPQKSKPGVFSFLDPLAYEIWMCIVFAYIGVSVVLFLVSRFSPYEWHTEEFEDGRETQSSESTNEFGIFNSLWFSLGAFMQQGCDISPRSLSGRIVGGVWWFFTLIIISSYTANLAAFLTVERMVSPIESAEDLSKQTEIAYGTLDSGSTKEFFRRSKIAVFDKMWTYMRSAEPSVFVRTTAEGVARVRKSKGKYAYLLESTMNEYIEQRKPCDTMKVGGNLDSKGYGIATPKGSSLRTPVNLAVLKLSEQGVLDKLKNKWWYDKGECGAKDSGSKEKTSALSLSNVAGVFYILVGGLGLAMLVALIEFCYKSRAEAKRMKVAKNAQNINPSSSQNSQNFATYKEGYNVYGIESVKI
Experimental: 384 well plates are prepared containing confluent monolayer of HEK 293 cells either stably expressing or transiently transfected with human GluR2 flip (unedited) AMPA receptor subunit. These cells form functional homotetrameric AMPA receptors. The tissue culture medium in the wells are discarded and the wells are each washed three times with standard buffer (80 μL) for the stable cell line (145 mM NaCl, 5 mM KCl, 1 mM MgCl2, 2 mM CaCl2, 20 mM N-[2-hydroxyethyl]-piperazine-N-[2-ethanesulfonic acid (HEPES), 5.5 mM glucose, pH 7.3) or with a Na-free buffer for the transient transfected cells (145 mM N-methyl-glucamine instead of NaCl). The plates are then incubated for 60 minutes in the dark with 2 μM FLUO4-AM dye (20 μL) (Molecular Probes, Netherlands) at room temperature to allow cell uptake of the FLUO-4AM, which is then converted to FLUO-4 by intracellular esterases which is unable to leave the cell. After incubation each well is washed three times with buffer (80 μL) (30 μL of buffer remained in each well after washing).
Compounds of the invention (or reference compounds such as cyclothiazide) are dissolved in dimethylsulfoxide (DMSO) at a stock concentration of 10 mM. These solutions are further diluted with DMSO using a Biomek FX (Beckman Coulter) in a 384 compound plate. Each dilution (1 μL) is transferred to another compound plate and buffer (50 μL) is added. An agonist stimulus (glutamate) plate is prepared by dissolving sodium glutamate in water to give a concentration of 100 mM. This solution is diluted with buffer to give a final concentration of 500 μM and dispensed into another 384-well plate (50 μL/well) using a Multidrop (Thermolabsystems).
The cell plate is then transferred into a fluorescence imaging plate based reader [such as the FLIPR384 (Molecular Devices)]. A baseline fluorescence reading is taken over a 10 to 240 second period, and then 10 μL from each plate containing a compound of the invention made up in standard buffer solution (in a concentration range from […]) is added (to give a final concentration in the range 30 μM to 3 pM). The fluorescence is read over 5 minute period. 500 μM glutamate solution (10 μL) is added (to give a final concentration of 100 μM). The fluorescence is then read over a 4 minute period. The activities of the compounds of the invention and reference compounds are determined by measuring peak fluorescence after the last addition. The activity is also expressed relative to the fluorescence increase induced by cyclothiazide at their maximum response (i.e. greater than 30 μM).
The assay described above is believed to have an effective limit of detection of a pEC50 in the region of 3.5-4.0 due to the limitations of compound solubility. The pEC50 result is generally considered to be accurate +/−0.3.

Row | SMILES | Emax [%]
1 | CC(C)S(=O)(=O)N[C@@H]1CCO[C@@H]1c1ccc(-c2ccc(F)nc2)cc1 (relative stereo) [Example 1, N-{cis-2-[4-(6-fluoro-3-pyridinyl)phenyl]tetrahydro-3-furanyl}-2-propanesulfonamide] | ≥ 50
2 | CC(C)S(=O)(=O)N[C@@H]1CCO[C@@H]1c1ccc(-c2ccc(F)cn2)cc1 (relative stereo) [Example 3, N-{cis-2-[4-(5-fluoro-2-pyridinyl)phenyl]tetrahydro-3-furanyl}-2-propanesulfonamide] | ≥ 50
3 | Cc1ccc(-c2ccc([C@H]3OCC[C@H]3NS(=O)(=O)C(C)C)cc2)cn1 (relative stereo) [Example 2, N-{cis-2-[4-(6-methyl-3-pyridinyl)phenyl]tetrahydro-3-furanyl}-2-propanesulfonamide] | ≥ 50
4 | CC(C)S(=O)(=O)N[C@@H]1CCO[C@@H]1c1ccc(-c2cncc(F)c2)cc1 (relative stereo) [Example 4, N-{cis-2-[4-(5-fluoro-3-pyridinyl)phenyl]tetrahydro-3-furanyl}-2-propanesulfonamide] | ≥ 50
5 | Cc1cncc(-c2ccc([C@H]3OCC[C@H]3NS(=O)(=O)C(C)C)cc2)c1 (relative stereo) [Example 5, N-{cis-2-[4-(5-methyl-3-pyridinyl)phenyl]tetrahydro-3-furanyl}-2-propanesulfonamide] | ≥ 50

Other lines, results leading:

Row | Emax [%] | SMILES
6 | ≥ 50 | CC(C)S(=O)(=O)N[C@@H]1CCO[C@@H]1c1ccc(-c2cccs2)cc1 (relative stereo) [Example 9, N-{cis-2-[4-(2-thienyl)phenyl]tetrahydro-3-furanyl}-2-propanesulfonamide]
7 | ≥ 50 | CC(=O)c1cccc(-c2ccc([C@H]3OCC[C@H]3NS(=O)(=O)C(C)C)cc2)c1 (relative stereo) [Example 8, N-[cis-2-(3′-acetyl-4-biphenylyl)tetrahydro-3-furanyl]-2-propanesulfonamide]
8 | ≥ 50 | CC(C)S(=O)(=O)N[C@@H]1CCO[C@@H]1c1ccc(-c2ccc(F)cc2)cc1 (relative stereo) [Example 6, N-[cis-2-(4′-fluoro-4-biphenylyl)tetrahydro-3-furanyl]-2-propanesulfonamide]
9 | ≥ 50 | CC(C)S(=O)(=O)N[C@@H]1CCO[C@@H]1c1ccc(-c2ccc(C#N)cc2)cc1 (relative stereo) [Example 7, N-[cis-2-(4′-cyano-4-biphenylyl)tetrahydro-3-furanyl]-2-propanesulfonamide]
